The values below come from PMC4388264, “ANS complex of St John’s wort PR-10 protein with 28 copies in the asymmetric unit: a fiendish combination of pseudosymmetry with tetartohedral twinning” (Acta Crystallographica Section D: Biological Crystallography, 2015).

The experiment concerns the target T1, Hyp-1 (Hypericum perforatum, UniProt Q8H1L1).
T1 construct: gene HYP1.1; recombinant Hyp-1 with an N-terminal hexapeptide extension (GIDPFW–) as a cloning artifact
T1 sequence (Q8H1L1 1-159): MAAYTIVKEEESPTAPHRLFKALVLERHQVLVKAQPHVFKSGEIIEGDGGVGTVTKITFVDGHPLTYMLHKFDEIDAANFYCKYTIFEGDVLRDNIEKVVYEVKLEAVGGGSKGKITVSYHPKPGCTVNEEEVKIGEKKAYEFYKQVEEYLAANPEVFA
The experiment is described as follows: crystal structure at […] Å and ITC (N = […]); fluorometric titration gave Kd […]. In kind it is binding.

Usually Kd stands for the free concentration of one partner at which half of the binding sites on the other are occupied at equilibrium, for simple one-to-one binding.

`O=S(=O)(O)c1cccc2cccc(Nc3ccccc3)c12` [ANS, 8-anilino-1-naphthalene sulfonate] gave a Kd of 108 ± 3 µM.
